Measured values published in patent US20190249218A1, “Method, Medium and Kit for Detecting Multiple Aminoglycoside Resistance Including 16S rRNA Methylase Mediated Resistance in Gram-Negative Bacteria” (priority 2016, published 2019).
Values after ≈ are worked out from the molar mass of the structure shown. Where two headings read alike, the source gives them in different places.

How the values were obtained:
[1] = tested on: E. coli; assay: MIC by broth microdilution; type: cell-based, Escherichia coli; conditions: for MIC: Escherichia coli, read-out: MIC
Method: (§1) MICs of amikacin and gentamicin were determined using the broth microdilution method in cation-adjusted Mueller-Hinton broth, as recommended by the Clinical Laboratory Standard Institute (CLSI) guidelines (8). Amikacin and gentamicin sulfate (Fluorochem, Dertbyshire, UK) were tested over a range of dilutions from 0.25 to 256 μg/ml. A final inoculum of 5.10^5 CFU/ml of each strain was distributed in the 96 wells tray (Sarstedt, Ntimbrecht, Germany). All experiments were repeated in triplicate and E. coli ATCC 25922 was used as quality control. According to the CLSI breakpoints (9), Enterobacteriaceae isolates with gentamicin MICs≤4 and amikacin MICs≤16 mg/L were categorized as susceptible, while those with gentamicin MICs≥16 and amikacin MICs≥64 mg/L were categorized as resistant.
(§2) MICs of amikacin and gentamicin were determined as described above in Example 1.

[2] = tested on: P. mirabilis; assay: MIC by broth microdilution; type: cell-based, Proteus mirabilis; conditions: for MIC: Proteus mirabilis, read-out: MIC
Method: as §1, §2

[3] = isolate 92/31, E. coli, AAC(3)-IV
[4] = isolate 390, E. coli, AAC(3)-IV
[5] = isolate 1054 (first entry), E. coli, AAC(6′)-I
[6] = isolate 1054 (second entry), E. coli, AAC(6′)-I
[7] = isolate 1488, E. coli, AAC(6′)-II
[8] = isolate 4000, E. coli, APH(3′)-I + AAC(3)-V
[9] = isolate 22089, E. coli, AAC(3)-I + AAC(3)-V
[10] = isolate 122971, E. coli, ANT(2″)
[11] = isolate R1436, E. coli, AG susceptible
[12] = isolate R1438, E. coli, AG susceptible
[13] = isolate R4100, E. coli TOP10, npmA
[14] = isolate RP4, E. coli, APH(3′)-Ib
[15] = isolate pFCT1163, E. coli, AAC(6′)-Ia
[16] = isolate pFCT4392, E. coli, AAC(3)-Ia
[17] = isolate pWP701, E. coli, AAC(3)-IV
[18] = isolate R2260, P. mirabilis, AG susceptible

NCC[C@H](O)C(=O)N[C@@H]1C[C@H](N)[C@@H](O[C@H]2O[C@H](CN)[C@@H](O)[C@H](O)[C@H]2O)[C@H](O)[C@H]1O[C@H]1O[C@H](CO)[C@@H](O)[C@H](N)[C@H]1O [Amikacin]
MIC [1, 3]: 4 µg/mL (≈ 6.83 µM) | MIC ([1]; isolate 97, E. coli, AAC(3)-IV): 2 µg/mL (≈ 3.42 µM) | MIC [1, 4]: 16 µg/mL (≈ 27.3 µM) | MIC [1, 5]: 8 µg/mL (≈ 13.7 µM) | MIC [1, 6]: 16 µg/mL (≈ 27.3 µM) | MIC [1, 7]: 4 µg/mL (≈ 6.83 µM) | MIC [1, 8]: 4 µg/mL | MIC [1, 9]: 16 µg/mL | MIC [1, 10]: 4 µg/mL (≈ 6.83 µM) | MIC ([1]; isolate E28, E. coli, rmtB): > 256 µg/mL | MIC ([1]; isolate R107, E. coli, rmtB): > 256 µg/mL | MIC ([1]; isolate R1012, E. coli, armA): > 256 µg/mL | MIC [1, 11]: 2 µg/mL (≈ 3.42 µM) | MIC [1, 12]: 2 µg/mL (≈ 3.42 µM) | MIC [1, 13]: 128 µg/mL (≈ 219 µM) | MIC [1, 14]: 1 µg/mL (≈ 1.71 µM) | MIC [1, 15]: 128 µg/mL (≈ 219 µM) | MIC [1, 16]: 1 µg/mL (≈ 1.71 µM) | MIC [1, 17]: 1 µg/mL (≈ 1.71 µM) | MIC ([1]; strain 62Carb, E. coli, rmtB): > 512 µg/mL | MIC ([1]; strain 92/31, E. coli, AAC(3)-IV): 4 µg/mL (≈ 6.83 µM) | MIC ([1]; strain 97, E. coli, AAC(3)-IV): 2 µg/mL (≈ 3.42 µM) | MIC ([1]; strain 390, E. coli, AAC(3)-IV): 16 µg/mL (≈ 27.3 µM) | MIC ([1]; strain 1054a, E. coli, AAC(6′)-I): 8 µg/mL (≈ 13.7 µM) | MIC ([1]; strain 1054b, E. coli, AAC(6′)-I): 16 µg/mL (≈ 27.3 µM) | MIC ([1]; strain 1488, E. coli, AAC(6′)-II): 4 µg/mL (≈ 6.83 µM) | MIC ([1]; strain 4000, E. coli, APH(3′)-I + AAC(3)-V): 4 µg/mL | MIC ([1]; strain 22089, E. coli, AAC(3)-I + AAC(3)-V): 16 µg/mL | MIC ([1]; strain 122971, E. coli, ANT(2″)): 4 µg/mL (≈ 6.83 µM) | MIC ([1]; strain E28, E. coli, rmtB): > 512 µg/mL | MIC ([1]; strain R107, E. coli, rmtB): > 512 µg/mL | MIC ([1]; strain R1012, E. coli, armA): > 512 µg/mL | MIC ([1]; strain R1436, E. coli, susceptible): 2 µg/mL (≈ 3.42 µM) | MIC ([1]; strain R1438, E. coli, susceptible): 2 µg/mL (≈ 3.42 µM) | MIC ([1]; strain R4100, E. coli, npmA): 258 µg/mL (≈ 441 µM) | MIC ([1]; strain RP4, E. coli, APH(3′)-Ib): 1 µg/mL (≈ 1.71 µM) | MIC ([1]; strain pFCT1163, E. coli, AAC(6′)-Ia): 128 µg/mL (≈ 219 µM) | MIC ([1]; strain pFCT4392, E. coli, AAC(3)-Ia): 1 µg/mL (≈ 1.71 µM) | MIC ([1]; strain pWP701, E. coli, AAC(3)-IV): 1 µg/mL (≈ 1.71 µM) | Amikacin Phenotype ([1]; isolate 62Carb, E. coli, rmtB): R (amikacin MICs≥64 mg/L were categorized as resistant) | Amikacin Phenotype [1, 3]: S (amikacin MICs≤16 mg/L were categorized as susceptible) | Amikacin Phenotype ([1]; isolate 97, E. coli, AAC(3)-IV): S (amikacin MICs≤16 mg/L were categorized as susceptible) | Amikacin Phenotype [1, 4]: S (amikacin MICs≤16 mg/L were categorized as susceptible) | Amikacin Phenotype [1, 5]: S (amikacin MICs≤16 mg/L were categorized as susceptible) | Amikacin Phenotype [1, 6]: S (amikacin MICs≤16 mg/L were categorized as susceptible) | Amikacin Phenotype [1, 7]: S (amikacin MICs≤16 mg/L were categorized as susceptible) | Amikacin Phenotype [1, 8]: S (amikacin MICs≤16 mg/L were categorized as susceptible) | Amikacin Phenotype [1, 9]: S (amikacin MICs≤16 mg/L were categorized as susceptible) | Amikacin Phenotype [1, 10]: S (amikacin MICs≤16 mg/L were categorized as susceptible) | Amikacin Phenotype ([1]; isolate E28, E. coli, rmtB): R (amikacin MICs≥64 mg/L were categorized as resistant) | Amikacin Phenotype ([1]; isolate FR136, E. coli ATCC 25922, AG susceptible): S (amikacin MICs≤16 mg/L were categorized as susceptible) | Amikacin Phenotype ([1]; isolate R107, E. coli, rmtB): R (amikacin MICs≥64 mg/L were categorized as resistant) | Amikacin Phenotype ([1]; isolate R262, E. coli, rmtC): R (amikacin MICs≥64 mg/L were categorized as resistant) | Amikacin Phenotype ([1]; isolate R451, E. coli, rmtC): R (amikacin MICs≥64 mg/L were categorized as resistant) | Amikacin Phenotype ([1]; isolate R989, E. coli, armA): R (amikacin MICs≥64 mg/L were categorized as resistant) | Amikacin Phenotype ([1]; isolate R990, E. coli, rmtB): R (amikacin MICs≥64 mg/L were categorized as resistant) | Amikacin Phenotype ([1]; isolate R1012, E. coli, armA): R (amikacin MICs≥64 mg/L were categorized as resistant) | Amikacin Phenotype [1, 11]: S (amikacin MICs≤16 mg/L were categorized as susceptible) | Amikacin Phenotype [1, 12]: S (amikacin MICs≤16 mg/L were categorized as susceptible) | Amikacin Phenotype ([1]; isolate R2278, E. coli ATCC 35218, AG susceptible): S (amikacin MICs≤16 mg/L were categorized as susceptible) | Amikacin Phenotype [1, 13]: R (amikacin MICs≥64 mg/L were categorized as resistant) | Amikacin Phenotype [1, 14]: S (amikacin MICs≤16 mg/L were categorized as susceptible) | Amikacin Phenotype [1, 15]: R (amikacin MICs≥64 mg/L were categorized as resistant) | Amikacin Phenotype [1, 16]: S (amikacin MICs≤16 mg/L were categorized as susceptible) | Amikacin Phenotype [1, 17]: S (amikacin MICs≤16 mg/L were categorized as susceptible) | MIC [2, 18]: 4 µg/mL (≈ 6.83 µM) | MIC ([2]; strain R263, P. mirabilis, armA): > 512 µg/mL | MIC ([2]; strain R2260, P. mirabilis, susceptible): 4 µg/mL (≈ 6.83 µM) | Amikacin Phenotype [2, 18]: S (amikacin MICs≤16 mg/L were categorized as susceptible)
